In brackets after ≈: the same amount, converted by molar mass. Where two headings read alike, the source gives them in different places.
Assays:
Type in all cases: cell-based
Staphylococcus 209 P = experiment: Minimum inhibitory concentration by agar dilution, Staphylococcus 209 P; settings: 18 h, agar medium, N.A., Table II (Staphylococcus 20 P [sic]), read-out: minimum inhibitory concentration
Method: (§1) (a) Trypticase soya medium (T.S.A.), which is very suitable for culturing the majority of microorganisms; it has the following composition:
(§2) (b) Ordinarily nutrient agar (N.A.), which is less rich in nutrients, corresponds to the following formulation: […]
(§3) Table I gives the minimum inhibitory concentrations (expressed in μg/cm^3) for the various microorganisms tested on each medium.
(§4) The products were tested on three Gram positive microorganisms (1 to 3) […] and on 10 Gram negative microorganisms (4 to 13).
(§5) Table (II) gives the minimum inhibitory concentrations of the compounds of Examples XII to XVI, determined on the agar medium, N.A., and expressed in μg/cm^3.

Bord. bronchiseptica = experiment: Minimum inhibitory concentration by agar dilution, Bord. bronchiseptica; settings: Bordetella bronchiseptica, 18 h, read-out: minimum inhibitory concentration
Method: as §1, §2, §3, §4, §5

Pr. mirabilis = experiment: Minimum inhibitory concentration by agar dilution, Pr. mirabilis; settings: Proteus mirabilis, 18 h, read-out: minimum inhibitory concentration
Method: as §1, §2, §3, §4, §5

Esch. Coli 95 = experiment: Minimum inhibitory concentration by agar dilution, Esch. Coli 95; settings: Escherichia coli, 18 h; agar medium, N.A.; Table II; read-out: minimum inhibitory concentration
Method: as §1, §2, §3, §4, §5

Pr. vulgaris = experiment: Minimum inhibitory concentration by agar dilution, Pr. vulgaris; settings: Proteus vulgaris, 18 h, read-out: minimum inhibitory concentration
Method: as §1, §2, §3, §4, §5

Streptococcus = experiment: Minimum inhibitory concentration by agar dilution, Streptococcus Group A; settings: 18 h; agar medium, N.A.; Table II; read-out: minimum inhibitory concentration
Method: as §1, §2, §3, §4, §5

Salm. typhi = experiment: Minimum inhibitory concentration by agar dilution, Salm. typhi; settings: Salmonella enterica, 18 h, read-out: minimum inhibitory concentration
Method: as §1, §2, §3, §4, §5

Sh. sonnei = experiment: Minimum inhibitory concentration by agar dilution, Sh. sonnei; settings: Shigella sonnei, 18 h; agar medium, N.A.; Table II; read-out: minimum inhibitory concentration
Method: as §1, §2, §3, §4, §5

Pr. morganii = experiment: Minimum inhibitory concentration by agar dilution, Pr. morganii; settings: Morganella morganii, 18 h; agar medium, N.A.; Table II; read-out: minimum inhibitory concentration
Method: as §1, §2, §3, §4, §5

B. subtilis = experiment: Minimum inhibitory concentration by agar dilution, B. subtilis; settings: Bacillus subtilis, 18 h; agar medium, N.A.; Table II; read-out: minimum inhibitory concentration
Method: as §1, §2, §3, §4, §5

B. pyocyaneus A22 = experiment: Minimum inhibitory concentration by agar dilution, B. pyocyaneus A22; settings: Pseudomonas aeruginosa, A22, 18 h; agar medium, N.A.; Table II; read-out: minimum inhibitory concentration
Method: as §1, §2, §3, §4, §5

Klebs. pneumoniae = experiment: Minimum inhibitory concentration by agar dilution, Klebs. pneumoniae; settings: Klebsiella pneumoniae, 18 h; agar medium, N.A.; Table II; read-out: minimum inhibitory concentration
Method: as §1, §2, §3, §4, §5

Structure (SMILES)	MIC (Staphylococcus 209 P) [µg/mL]	MIC (Bord. bronchiseptica) [µg/mL]	MIC (Pr. mirabilis) [µg/mL]	MIC (Esch. Coli 95) [µg/mL]	MIC (Pr. vulgaris; agar medium, N.A., Table II) [µg/mL]	MIC (Streptococcus) [µg/mL]	MIC (Salm. typhi) [µg/mL]	MIC (Sh. sonnei) [µg/mL]	MIC (Pr. morganii) [µg/mL]	MIC (B. subtilis) [µg/mL]	MIC (B. pyocyaneus A22) [µg/mL]	MIC (Klebs. pneumoniae) [µg/mL]	MIC (Bord. bronchiseptica; agar medium, N.A., Table II) [µg/mL]	MIC (Pr. mirabilis; agar medium, N.A., Table II) [µg/mL]	MIC (Pr. vulgaris) [µg/mL]
CCCN1CCN(c2ncc3c(=O)c(C(=O)O)cn(CC)c3n2)CC1 [XIII, 2-(4'-Propyl-piperazino)-5-oxo-8-ethyl-5,8-dihydro-pyrido(2,3-d)pyrimidine-6-carboxylic acid]	6.2 (≈ 18 µM)	12.5 (≈ 36.2 µM)	12.5 (≈ 36.2 µM)	50 (≈ 145 µM)	6.2 (≈ 18 µM)	6.2 (≈ 18 µM)	12.5 (≈ 36.2 µM)	1.6 (≈ 4.63 µM)	6.2 (≈ 18 µM)	3.1 (≈ 8.98 µM)	100 (≈ 290 µM)	1.6 (≈ 4.63 µM)	–	–	–
C=CCN1CCN(c2ncc3c(=O)c(C(=O)O)cn(CC)c3n2)CC1 [XIV, 2-(4'-Allyl-piperazino)-5-oxo-8-ethyl-5,8-dihydro-pyrido(2,3-d)pyrimidine-6-carboxylic acid]	3.1 (≈ 9.03 µM)	–	–	50 (≈ 146 µM)	3.1 (≈ 9.03 µM)	1.6 (≈ 4.66 µM)	3.1 (≈ 9.03 µM)	0.8 (≈ 2.33 µM)	1.6 (≈ 4.66 µM)	3.1 (≈ 9.03 µM)	25 (≈ 72.8 µM)	0.4 (≈ 1.16 µM)	3.1 (≈ 9.03 µM)	6.2 (≈ 18.1 µM)	–
CCn1cc(C(=O)O)c(=O)c2cnc(N3CCN(Cc4ccc(Cl)cc4)CC3)nc21 [XV, 2-(4'-p-Chlorobenzyl-piperazino)-5-oxo-8-ethyl-5,8-dihydro-pyrido(2,3-d)pyrimidine-6-carboxylic acid]	0.8 (≈ 1.87 µM)	–	12.5 (≈ 29.2 µM)	100 (≈ 234 µM)	–	1.6 (≈ 3.74 µM)	12.5 (≈ 29.2 µM)	1.6 (≈ 3.74 µM)	6.2 (≈ 14.5 µM)	1.6 (≈ 3.74 µM)	50 (≈ 117 µM)	0.8 (≈ 1.87 µM)	3.1 (≈ 7.24 µM)	–	12.5 (≈ 29.2 µM)
CCn1cc(C(=O)O)c(=O)c2cnc(N3CCN(Cc4ccc(OC)cc4)CC3)nc21 [XVI, 2-(4'-p-Methoxybenzyl-piperazino)-5-oxo-8-ethyl-5,8-dihydro-pyrido(2,3-d)pyrimidine-6-carboxylic acid]	0.4 (≈ 0.945 µM)	–	–	3.1 (≈ 7.32 µM)	6.2 (≈ 14.6 µM)	0.8 (≈ 1.89 µM)	1.6 (≈ 3.78 µM)	0.8 (≈ 1.89 µM)	1.6 (≈ 3.78 µM)	50 (≈ 118 µM)	12.5 (≈ 29.5 µM)	0.2 (≈ 0.472 µM)	12.5 (≈ 29.5 µM)	12.5 (≈ 29.5 µM)	–
